Laboratory results taken from PubChem BioAssay (NCI).
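Each compound was tested at five concentrations against cells in 96-well plates for 48 hours. GI50 = concentration required for 50% inhibition of growth. At the TGI there is no net growth.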

The compounds below were run on NCI-H226 lung (assay: inhibition of tumour cell growth, NCI panel, 48 h).

First: CC(O)(C(=O)N(O)c1ccc(Cl)cc1)c1ccc(Cl)cc1 (stereo not drawn)
Second: Cc1cccc(NC(Nc2cccc(C)c2)=C(C(Cl)=C(Cl)Cl)[N+](=O)[O-])c1
The TGI of the first is higher: > 100 µM for the first, 22.5 µM for the second.

`CC1(C)OC(CCO)CN1C(=O)OCc1ccccc1` (stereo not drawn) and `CCc1cc(=O)n(/C(C)=C/c2ccccc2)n1C` cannot be ordered by TGI: > 100 µM for the first, > 100 µM for the second.

Going from `COc1cc2c(cc1OCCCOc1cc3c(cc1OC)C(=O)N1CCC[C@H]1CN3)N=C[C@@H]1CCCN1C2=O` to `COc1cc2c(cc1O)CC[n+]1cc3c(OC)c(OC)ccc3cc1-2`, the TGI rises from 0.398 µM to > 100 µM.

`COc1ccc(N2C(=O)C3c4[nH]c5ccccc5c4C4C(C)CCCC4C3C2=O)cc1` (stereo not drawn) and `O=C1c2c(c3c4ccc(Br)cc4oc3c3[nH]c4ccccc4c23)C(=O)N1O` cannot be ordered by TGI: > 100 µM for the first, > 100 µM for the second.

`CCOC(=O)C1=C(C)NC(=O)N([N+](=O)[O-])C1c1ccccc1C(F)(F)F` (stereo not drawn) and `CCOC(=O)c1c(NC(=S)Nc2ccc(C)cc2)sc2c1CCN(C)C2` cannot be ordered by TGI: > 100 µM for the first, > 100 µM for the second.

`O=c1c(Cc2ccccc2)c(-c2ccccc2)[nH]n1C1=NCCN1` and `O=C1NN=C(c2c[nH]c3ccccc23)CC1NCc1ccccc1` (stereo not drawn) cannot be ordered by TGI: > 100 µM for the first, > 100 µM for the second.

`Brc1ccc2c(c1)-c1nc3c(cc1CC2)CCc1ccc(Br)cc1-3` and `O=[N+]([O-])c1ccc2nc3c(nc2c1)-c1c2ccccc2cc2cccc-3c12` cannot be ordered by TGI: > 100 µM for the first, > 100 µM for the second.

First: CN1c2ccccc2C(=O)NC12CCN(CC1COc3ccccc3O1)CC2 (stereo not drawn)
Second: O=c1oc2ccccc2c2nc3ccccc3cc12
The TGI of the first is lower: 87.4 µM for the first, > 100 µM for the second.

`CCOC(=O)C(NC(=O)c1ccc(N=NN(C)C)cc1)C(C)C` (stereo not drawn) and `CCOC(=O)C(C)NC(=O)N(C)C12CC3CC(CC(C3)C1)C2` (stereo not drawn) cannot be ordered by TGI: > 100 µM for the first, 489 µM for the second.

`COc1cc(CCCOC2OC(COC3OCC(O)C(O)C3O)C(O)C(O)C2O)cc2cc(-c3ccc4c(c3)OCO4)oc12` (stereo not drawn) and `OCC1OC(O[C@H]2CN3[C@H](O)[C@@H](O)[C@H](O)[C@H]3C2O)C(O)C(O)C1O` (stereo partly drawn) cannot be ordered by TGI: > 175 µM for the first, > 100 µM for the second.

`CCOC(=O)c1ccc(C(=O)/C(C(=O)OC(C)(C)C)=C2\CCCN2C)n1C` and `COC(=O)C1=C(C(=O)OC)C2(C)CCC(=O)C1O2` (stereo not drawn) cannot be ordered by TGI: > 100 µM for the first, > 10 µM for the second.

`COc1ccc(CN2C(=O)C(=O)N(C)C2=O)c2ccccc12` and `O=c1c2cc3c(=O)n(CCc4ccccc4CO)c(=O)c3cc2c(=O)n1CCc1ccccc1CO` cannot be ordered by TGI: > 10 µM for the first, > 100 µM for the second.

First: CC1OC(n2cc(F)c(=O)[nH]c2=O)C(O[Si](C)(C)C(C)(C)C)C1O[Si](C)(C)C(C)(C)C (stereo not drawn)
Second: COC1OC2COC(C)(C)OC2C2OC(C)(C)OC12 (stereo not drawn)
The TGI of the first is 2.5-fold lower: 31.1 µM for the first, 76.2 µM for the second.

`c1ccc([P+](Cc2csnn2)(c2ccccc2)c2ccccc2)cc1` and `c1ccc(-c2ccc(N=NN3CCCC3)cc2)cc1` cannot be ordered by TGI: > 100 µM for the first, > 100 µM for the second.

Compared with `NS(=O)(=O)c1nnc(NSc2ccc([N+](=O)[O-])cc2)s1`, `C/C(=N\Nc1nc2ccccc2s1)c1cccnn1` is lower in TGI: > 100 µM for the first, 59.3 µM for the second.

First: Nc1nc(Nc2ccc(OCc3cccc(F)c3)cc2)c2c(n1)[nH]c1ccc(O)cc12
Second: CCOC(=O)c1[nH]c2nc(SC)nc(NC)c2c1N
The TGI of the first is lower: 54.6 µM for the first, > 100 µM for the second.

`CCC1(CC)C(=O)NC(=S)N=C1N` and `COC(=O)c1sc2ncc3c(c2c1N)CC(C)CC3` (stereo not drawn) cannot be ordered by TGI: > 100 µM for the first, > 100 µM for the second.

`CC1=NC(C)(C)N(O)C1(C)C` and `C=C1CC=CC(C)(C)C1C/C=C(\C)C(O)CBr` (stereo not drawn) cannot be ordered by TGI: > 100 µM for the first, > 100 µM for the second.

`CCCC[C@@H]1CCN2C[C@@H](O)[C@@H](O)[C@H]2[C@@H]1O` and `CCN(CC(=O)O)CC(=O)O` cannot be ordered by TGI: > 100 µM for the first, > 100 µM for the second.

`Clc1cccc(C2ON=C(c3ccccc3)N2C23CC4CC(CC(C4)C2)C3)c1Cl` (stereo not drawn) and `CC1=CCC[C@H]2[C@](C)(CC3=CC(=O)C4SCCSC4C3=O)[C@@H](C)CC[C@]12C` (stereo partly drawn) cannot be ordered by TGI: > 10 µM for the first, 30.3 µM for the second.

Compared with `CCNC(=S)N/N=C/c1ccccn1`, `O=C(NCCCNCCCCNCCCNC(=O)C(F)(F)F)C(F)(F)F` is higher in TGI: 22 µM for the first, > 100 µM for the second.

For `N/C(CSCCSC/C(N)=N/O)=N\O`, the TGI was > 100 µM.

Going from `O=C1c2c(c3c4ccc(Br)cc4oc3c3[nH]c4ccccc4c23)C(=O)N1O` to `Nc1nc(Nc2ccc(OCc3cccc(F)c3)cc2)c2c(n1)[nH]c1ccc(O)cc12`, the GI50 rises from 2.34 µM to 24.2 µM (10-fold).

The compounds below were run on HOP-92 NSCLC (assay: inhibition of tumour cell growth, NCI panel, 48 h).

`CC(O)(C(=O)N(O)c1ccc(Cl)cc1)c1ccc(Cl)cc1` (stereo not drawn) and `FC(F)=C(c1ccc(-c2ccc(Cl)cc2)cc1)C(F)(F)F` are within 1.5-fold of each other in TGI: 48.3 µM for the first, 33.4 µM for the second.

`CCOP(=O)(OCC)c1cc(-c2ccccc2)ccc1N` and `c1ccc(-c2ccc(N=NN3CCCC3)cc2)cc1` cannot be ordered by TGI: > 100 µM for the first, > 100 µM for the second.

`CC1(C)OC(CCO)CN1C(=O)OCc1ccccc1` (stereo not drawn) and `CCc1cc(=O)n(/C(C)=C/c2ccccc2)n1C` cannot be ordered by TGI: > 100 µM for the first, > 100 µM for the second.

Going from `COc1ccc(N2C(=O)C3c4[nH]c5ccccc5c4C4C(C)CCCC4C3C2=O)cc1` (stereo not drawn) to `O=C1c2c(c3c4ccc(Br)cc4oc3c3[nH]c4ccccc4c23)C(=O)N1O`, the TGI falls from > 100 µM to 4.45 µM.

`CCOC(=O)C1=C(C)NC(=O)N([N+](=O)[O-])C1c1ccccc1C(F)(F)F` (stereo not drawn) and `O=C(O)c1cc2ccccc2c(S(=O)(=O)O)c1O` cannot be ordered by TGI: > 100 µM for the first, > 100 µM for the second.

`O=c1c(Cc2ccccc2)c(-c2ccccc2)[nH]n1C1=NCCN1` and `O=C1NN=C(c2c[nH]c3ccccc23)CC1NCc1ccccc1` (stereo not drawn) cannot be ordered by TGI: > 100 µM for the first, > 100 µM for the second.

First: Brc1ccc2c(c1)-c1nc3c(cc1CC2)CCc1ccc(Br)cc1-3
Second: O=[N+]([O-])c1ccc2nc3c(nc2c1)-c1c2ccccc2cc2cccc-3c12
The TGI of the first is higher: > 100 µM for the first, 58 µM for the second.

`CN1c2ccccc2C(=O)NC12CCN(CC1COc3ccccc3O1)CC2` (stereo not drawn) and `O=c1oc2ccccc2c2nc3ccccc3cc12` are within 1.5-fold of each other in TGI: 71.3 µM for the first, 90.1 µM for the second.

`COc1cc(CCCOC2OC(COC3OCC(O)C(O)C3O)C(O)C(O)C2O)cc2cc(-c3ccc4c(c3)OCO4)oc12` (stereo not drawn) and `OCC1OC(O[C@H]2CN3[C@H](O)[C@@H](O)[C@H](O)[C@H]3C2O)C(O)C(O)C1O` (stereo partly drawn) cannot be ordered by TGI: > 175 µM for the first, > 100 µM for the second.

Going from `c1ccc([P+](Cc2csnn2)(c2ccccc2)c2ccccc2)cc1` to `C/C(=N\Nc1nc2ccccc2s1)c1cccnn1`, the TGI falls from > 100 µM to 14.3 µM.

First: COc1cc2c(cc1O)CC[n+]1cc3c(OC)c(OC)ccc3cc1-2
Second: Nc1nc(Nc2ccc(OCc3cccc(F)c3)cc2)c2c(n1)[nH]c1ccc(O)cc12
The TGI of the first is higher: > 100 µM for the first, 7.98 µM for the second.

`NS(=O)(=O)c1nnc(NSc2ccc([N+](=O)[O-])cc2)s1` and `Cc1cc(C)nc(NS(=O)(=O)c2ccc(Nc3c4ccccc4nc4c(C(=O)NCCO)cccc34)cc2)n1` cannot be ordered by TGI: > 100 µM for the first, > 100 µM for the second.

`CCC1(CC)C(=O)NC(=S)N=C1N` and `COC(=O)c1sc2ncc3c(c2c1N)CC(C)CC3` (stereo not drawn) cannot be ordered by TGI: > 100 µM for the first, > 100 µM for the second.

`CC1=NC(C)(C)N(O)C1(C)C` and `C=C1CC=CC(C)(C)C1C/C=C(\C)C(O)CBr` (stereo not drawn) cannot be ordered by TGI: > 100 µM for the first, > 100 µM for the second.

`CCCC[C@@H]1CCN2C[C@@H](O)[C@@H](O)[C@H]2[C@@H]1O` and `CCOC(=O)C(C)NC(=O)N(C)C12CC3CC(CC(C3)C1)C2` (stereo not drawn) cannot be ordered by TGI: > 100 µM for the first, 283 µM for the second.

`Clc1cccc(C2ON=C(c3ccccc3)N2C23CC4CC(CC(C4)C2)C3)c1Cl` (stereo not drawn) and `CC1=CCC[C@H]2[C@](C)(CC3=CC(=O)C4SCCSC4C3=O)[C@@H](C)CC[C@]12C` (stereo partly drawn) cannot be ordered by TGI: > 10 µM for the first, 70.4 µM for the second.

`CCN(CC(=O)O)CC(=O)O` and `N/C(CSCCSC/C(N)=N/O)=N\O` cannot be ordered by TGI: > 100 µM for the first, > 100 µM for the second.

`O=C1c2c(c3c4ccc(Br)cc4oc3c3[nH]c4ccccc4c23)C(=O)N1O` and `Nc1nc(Nc2ccc(OCc3cccc(F)c3)cc2)c2c(n1)[nH]c1ccc(O)cc12` are within 1.5-fold of each other in GI50: 1.74 µM for the first, 2.37 µM for the second.

Each compound was assayed on UACC-257 melanoma (assay: inhibition of tumour cell growth, NCI panel, 48 h).

Going from `CC(O)(C(=O)N(O)c1ccc(Cl)cc1)c1ccc(Cl)cc1` (stereo not drawn) to `c1ccc(-c2ccc(N=NN3CCCC3)cc2)cc1`, the TGI rises from 65.1 µM to > 100 µM.

`CCOP(=O)(OCC)c1cc(-c2ccccc2)ccc1N` and `O=c1c(Cc2ccccc2)c(-c2ccccc2)[nH]n1C1=NCCN1` cannot be ordered by TGI: > 100 µM for the first, > 100 µM for the second.

`CC1(C)OC(CCO)CN1C(=O)OCc1ccccc1` (stereo not drawn) and `CCOC(=O)C1=C(C)NC(=O)N([N+](=O)[O-])C1c1ccccc1C(F)(F)F` (stereo not drawn) cannot be ordered by TGI: > 100 µM for the first, > 100 µM for the second.

First: COc1cc2c(cc1OCCCOc1cc3c(cc1OC)C(=O)N1CCC[C@H]1CN3)N=C[C@@H]1CCCN1C2=O
Second: COc1cc2c(cc1O)CC[n+]1cc3c(OC)c(OC)ccc3cc1-2
The TGI of the first is lower: 0.516 µM for the first, > 100 µM for the second.

First: COc1ccc(N2C(=O)C3c4[nH]c5ccccc5c4C4C(C)CCCC4C3C2=O)cc1 (stereo not drawn)
Second: Nc1nc(Nc2ccc(OCc3cccc(F)c3)cc2)c2c(n1)[nH]c1ccc(O)cc12
The TGI of the first is higher: > 100 µM for the first, 22.2 µM for the second.

`Brc1ccc2c(c1)-c1nc3c(cc1CC2)CCc1ccc(Br)cc1-3` and `O=[N+]([O-])c1ccc2nc3c(nc2c1)-c1c2ccccc2cc2cccc-3c12` cannot be ordered by TGI: > 100 µM for the first, > 94.6 µM for the second.

`CN1c2ccccc2C(=O)NC12CCN(CC1COc3ccccc3O1)CC2` (stereo not drawn) and `c1ccc([P+](Cc2csnn2)(c2ccccc2)c2ccccc2)cc1` cannot be ordered by TGI: > 100 µM for the first, > 100 µM for the second.

`CCOC(=O)C(NC(=O)c1ccc(N=NN(C)C)cc1)C(C)C` (stereo not drawn) and `CCOC(=O)c1c(NC(=S)Nc2ccc(C)cc2)sc2c1CCN(C)C2` cannot be ordered by TGI: > 100 µM for the first, > 100 µM for the second.

`COc1cc(CCCOC2OC(COC3OCC(O)C(O)C3O)C(O)C(O)C2O)cc2cc(-c3ccc4c(c3)OCO4)oc12` (stereo not drawn) and `OCC1OC(O[C@H]2CN3[C@H](O)[C@@H](O)[C@H](O)[C@H]3C2O)C(O)C(O)C1O` (stereo partly drawn) cannot be ordered by TGI: > 175 µM for the first, > 100 µM for the second.

Going from `CCOC(=O)c1ccc(C(=O)/C(C(=O)OC(C)(C)C)=C2\CCCN2C)n1C` to `CC1OC(n2cc(F)c(=O)[nH]c2=O)C(O[Si](C)(C)C(C)(C)C)C1O[Si](C)(C)C(C)(C)C` (stereo not drawn), the TGI falls from > 100 µM to 33.2 µM.

`NS(=O)(=O)c1nnc(NSc2ccc([N+](=O)[O-])cc2)s1` was tested, and the TGI was > 100 µM.

In the case of `Nc1nc(Nc2ccc(OCc3cccc(F)c3)cc2)c2c(n1)[nH]c1ccc(O)cc12`, the GI50 is reported as 4.81 µM.
